These results are taken from US20160016998A1, “HIGH-AFFINITY MATRIPTASE INHIBITORS” (MERCK PATENT GMBH, priority 2013, published 2016).

The term Ki denotes a dissociation constant, usually derived from enzyme kinetics or from competition with a known ligand. Read a low Ki as a stronger hold on the target.

Read-outs that look alike come from different tables or passages of the source. Bridge positions count the residues as written; N and C are the ends. Peptide text beside a SMILES is read from it.

The conditions of data set [1]: disulfide bond, air (O2), (NH4)2CO3 buffer pH 8.4, water, 168.0 h.
The target of data set [2] is T1, Bovine trypsin (Bos taurus, UniProt P00760).
T1 construct: purchased Sigma-Aldrich
T1 sequence (P00760 24-246): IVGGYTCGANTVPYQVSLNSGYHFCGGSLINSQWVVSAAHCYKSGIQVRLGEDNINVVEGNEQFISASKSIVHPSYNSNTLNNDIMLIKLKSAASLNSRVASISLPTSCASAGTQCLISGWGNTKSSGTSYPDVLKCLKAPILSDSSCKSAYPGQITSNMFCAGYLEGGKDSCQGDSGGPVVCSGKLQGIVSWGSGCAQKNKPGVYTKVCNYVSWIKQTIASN
The experiment in a line: Trypsin enzyme inhibition assay with chromogenic substrate Boc-QAR-pNA. The settings on record: pH 7.6. The class given is biochemical. The procedure:
(§1) Recombinant production, autocatalytic activation and purification of matriptase were conducted as previously described. Bovine trypsin was purchased from Sigma-Aldrich. Active-site titration and determination of Michaelis-Menten constants KM for the chromogenic substrate Boc-QAR-pNA was performed as reported earlier.
All experiments were performed in triplicate. Active-site titrated matriptase (final concentration: [E]=0.9 nM) or trypsin (final concentration: [E]=0.5 nM) were incubated with the respective inhibitor in different concentrations [I] at pH 7.6 or 8.5 for 30 min. Then, the chromogenic substrate Boc-QAR-pNA (final concentration: [S]=250 μM) was added. The residual proteolytic activity (v/v0) was determined by monitoring the absorption of the corresponding samples in 96-well plates (NUNC, round bottom, clear) at 405 nm in 60 sec intervals over 30 min at RT using the Tecan GENios microplate reader. Slopes of the initial reaction velocities (steady-state) were calculated and normalized to the data of the uninhibited enzymatic hydrolysis of Boc-QAR-pNA. The determined v/v0 values were plotted against the concentration of the inhibitor. The resulting dose-response curves were fitted either by equation 1 or in case of tight-binding inhibition (trypsin: 42; matriptase: 43 at pH 8.5, 44 at pH 7.6 and 8.5) by equation 2 through non-linear regression.
(§2) Errors were calculated through propagation of errors (compare Tischler et al.).[17]

Data set [3] has as its target T2, matriptase (Homo sapiens, UniProt Q9Y5Y6).
T2 construct: made in house
T2 sequence (Q9Y5Y6 615-855 limits assumed): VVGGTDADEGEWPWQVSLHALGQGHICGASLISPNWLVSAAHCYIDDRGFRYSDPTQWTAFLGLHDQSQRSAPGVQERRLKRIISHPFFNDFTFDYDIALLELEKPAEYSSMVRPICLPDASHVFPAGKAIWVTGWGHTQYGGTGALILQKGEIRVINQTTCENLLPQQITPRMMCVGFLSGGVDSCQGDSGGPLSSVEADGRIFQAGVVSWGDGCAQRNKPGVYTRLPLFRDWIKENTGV
Description: Matriptase enzyme inhibition assay with chromogenic substrate Boc-QAR-pNA. The class given is biochemical. Particulars: for matriptase affinity / inhibitor potency in words: enzyme inhibition assays, comparator as worded; for Relative Activity: ratio Ki of compound / Ki of SFTI-1[1,14]; for Sum of Increment Contributions: sum of ΔBG differences of the single modifications. As for the experimental part: as §1
All experiments were performed in triplicate. […] Slopes of the initial reaction velocities (steady-state) were calculated and normalized to the data of the uninhibited enzymatic hydrolysis of Boc-QAR-pNA. The determined v/v0 values were plotted against the concentration of the inhibitor.
as §2

In data set [1] (from CC[C@H](C)[C@H](NC(=O)[C@@H]1CCCN1C(=O)[C@@H]1CCCN1C(=O)[C@H](Cn1cc(CN)nn1)NC(=O)[C@H](CO)NC(=O)[C@H](CCCCN)NC(=O)[C@@H](NC(=O)[C@H](CS)NC(=O)[C@H](CCCNC(=N)N)NC(=O)CN)[C@@H](C)O)C(=O)N[C@@H](CS)C(=O)N[C@@H](Cc1ccccc1)C(=O)N1CCC[C@H]1C(=O)N[C@@H](CC(=O)O)C(=O)O, 0.63 mM, 4 steps), `CC[C@H](C)[C@@H]1NC(=O)[C@@H]2CCCN2C(=O)[C@@H]2CCCN2C(=O)[C@H](Cn2cc(CN)nn2)NC(=O)[C@H](CO)NC(=O)[C@H](CCCCN)NC(=O)[C@H]([C@@H](C)O)NC(=O)[C@@H](NC(=O)[C@H](CCCNC(=N)N)NC(=O)CN)CSSC[C@@H](C(=O)N[C@@H](Cc2ccccc2)C(=O)N2CCC[C@H]2C(=O)N[C@@H](CC(=O)O)C(=O)O)NC1=O` gave a ring closure, yield of all isomers of 17%.

In the case of `CC[C@H](C)[C@@H]1NC(=O)[C@H](CO)NC(=O)[C@H](CCCCN)NC(=O)[C@H]([C@@H](C)O)NC(=O)[C@@H](NC(=O)[C@H](CCCNC(=N)N)NC(=O)CN)CSSC[C@@H](C(=O)N[C@@H](Cc2c[nH]cn2)C(=O)N2CCC[C@H]2C(=O)N[C@@H](CC(=O)O)C(=O)O)NC(=O)[C@H](Cn2cc(CN)nn2)NC(=O)[C@@H]2CCCN2C(=O)[C@@H]2CCCN2C1=O` [Compound 42], the ring closure, yield of all isomers in data set [1] (from CC[C@H](C)[C@H](NC(=O)[C@H](CO)NC(=O)[C@H](CCCCN)NC(=O)[C@@H](NC(=O)[C@H](CS)NC(=O)[C@H](CCCNC(=N)N)NC(=O)CN)[C@@H](C)O)C(=O)N1CCC[C@H]1C(=O)N1CCC[C@H]1C(=O)N[C@@H](Cn1cc(CN)nn1)C(=O)N[C@@H](CS)C(=O)N[C@@H](Cc1c[nH]cn1)C(=O)N1CCC[C@H]1C(=O)N[C@@H](CC(=O)O)C(=O)O, 0.63 mM, 30 steps) came out at 1.2%. In addition, the Ki in data set [2] is 9.2 ± 2.1 nM; in data set [3] (pH 7.6 (Table 2)), 89.5 ± 11.1 nM. Also, in data set [3] (pH 7.6), the “matriptase affinity / inhibitor potency in words” value was “further increased matriptase affinity compared to SFTI-1[1,14] derivatives 9, 18, and 22”. Besides, in data set [3] (matriptase, pH 7.6 (Table 2)), the “ΔBG(x)-ΔBG(SFTI-1[1,14])” value worked out at 1.22 ± 0.096 kcal/mol. Moreover, the “Relative Activity” value in data set [3] (matriptase, pH 7.6 (Table 2)) turned out to be 0.13. For the same compound, the “Sum of Increment Contributions” value in data set [3] (matriptase, pH 7.6) came out at 1.65 ± 0.14 kcal/mol.

With `CC[C@H](C)[C@@H]1NC(=O)[C@H](CO)NC(=O)[C@H](CCCCN)NC(=O)[C@H]([C@@H](C)O)NC(=O)[C@@H](NC(=O)[C@H](CCCNC(=N)N)NC(=O)CN)CSSC[C@@H](C(=O)N[C@@H](Cc2ccccc2)C(=O)N2CCC[C@H]2C(=O)N[C@@H](CC(=O)O)C(=O)O)NC(=O)[C@H](CCCCN)NC(=O)[C@@H]2CCCN2C(=O)[C@@H]2CCCN2C1=O`, the ring closure, yield of all isomers in data set [1] (from CC[C@H](C)[C@H](NC(=O)[C@H](CO)NC(=O)[C@H](CCCCN)NC(=O)[C@@H](NC(=O)[C@H](CS)NC(=O)[C@H](CCCNC(=N)N)NC(=O)CN)[C@@H](C)O)C(=O)N1CCC[C@H]1C(=O)N1CCC[C@H]1C(=O)N[C@@H](CCCCN)C(=O)N[C@@H](CS)C(=O)N[C@@H](Cc1ccccc1)C(=O)N1CCC[C@H]1C(=O)N[C@@H](CC(=O)O)C(=O)O, […], 29 steps) came out at 3.9%.

The compound `CC[C@H](C)[C@@H]1NC(=O)[C@H](CO)NC(=O)[C@H](CCCCN)NC(=O)[C@H]([C@@H](C)O)NC(=O)[C@@H](NC(=O)[C@H](CCCNC(=N)N)NC(=O)CN)CSSC[C@@H](C(=O)N[C@@H](Cc2ccccc2)C(=O)N2CCC[C@H]2C(=O)N[C@@H](CC(=O)O)C(=O)O)NC(=O)[C@H](Cn2cc(CN)nn2)NC(=O)[C@@H]2CCCN2C(=O)[C@@H]2CCCN2C1=O` came in with a ring closure, yield of all isomers in data set [1] (from CC[C@H](C)[C@H](NC(=O)[C@H](CO)NC(=O)[C@H](CCCCN)NC(=O)[C@@H](NC(=O)[C@H](CS)NC(=O)[C@H](CCCNC(=N)N)NC(=O)CN)[C@@H](C)O)C(=O)N1CCC[C@H]1C(=O)N1CCC[C@H]1C(=O)N[C@@H](Cn1cc(CN)nn1)C(=O)N[C@@H](CS)C(=O)N[C@@H](Cc1ccccc1)C(=O)N1CCC[C@H]1C(=O)N[C@@H](CC(=O)O)C(=O)O, 0.63 mM, 22 steps) of 21.2%.

For `CC[C@H](C)[C@@H]1NC(=O)[C@H](CO)NC(=O)[C@H](CCCCN)NC(=O)[C@H]([C@@H](C)O)NC(=O)[C@@H](NC(=O)[C@H](CCCNC(=N)N)NC(=O)CN)CSSC[C@@H](C(=O)N[C@@H](Cc2c[nH]cn2)C(=O)N2CCC[C@H]2C(=O)N[C@@H](CC(=O)O)C(=O)O)NC(=O)[C@H](CCCNC(=N)N)NC(=O)[C@@H]2CCCN2C(=O)[C@@H]2CCCN2C1=O` [Compound 43] (H-GRCTKSIPPRCHPD-OH; disulfide 3-11; N-terminus assumed), the Ki in data set [2] is 11.2 ± 2 nM; in data set [3] (pH 7.6 (Table 2)), 11 nM; in data set [3] (pH 8.5 (values in brackets)), 1.1 nM. Besides, the “sum of individual favorable contributions to ΔBG” value in data set [3] (contributions of compounds 18 and 22) came out at 2.29 ± 0.14 kcal/mol. Further, the “matriptase affinity / inhibitor potency in words” value in data set [3] (pH 7.6) is “further increased matriptase affinity compared to SFTI-1[1,14] derivatives 9, 18, and 22”. Further, the “difference of the free energies of binding/dissociation ΔBG between compound and SFTI-1[1,14]” value in data set [3] (matriptase, pH 7.6) was 2.46 ± 0.096 kcal/mol. The “ΔBG(x)-ΔBG(SFTI-1[1,14])” value in data set [3] (matriptase, pH 7.6 (Table 2)) was 2.46 ± 0.096 kcal/mol. Further, the “Relative Activity” value in data set [3] (matriptase, pH 7.6 (Table 2)) was 0.016. The “Sum of Increment Contributions” value in data set [3] (matriptase, pH 7.6) was found to be 2.29 ± 0.14 kcal/mol.

`CC[C@H](C)[C@@H]1NC(=O)[C@H](CO)NC(=O)[C@H](CCCCN)NC(=O)[C@H]([C@@H](C)O)NC(=O)[C@@H](NC(=O)[C@H](CCCNC(=N)N)NC(=O)CN)CSSC[C@@H](C(=O)N[C@@H](Cc2c[nH]cn2)C(N)=O)NC(=O)[C@H](CCCNC(=N)N)NC(=O)[C@@H]2CCCN2C(=O)[C@@H]2CCCN2C1=O` [Compound 44] (H-GRCTKSIPPRCH-NH2; disulfide 3-11; N-terminus assumed): the results for the Ki in data set [2], in data set [3] (pH 7.6 (Table 2)) and in data set [3] (pH 8.5 (values in brackets)) were 38 ± 11.1 nM, 6.2 ± 1.2 nM and 2.3 ± 0.8 nM, respectively. Besides, in data set [3] (matriptase, pH 7.6 (Table 2)), the “ΔBG(x)-ΔBG(SFTI-1[1,14])” value turned out to be 2.8 ± 0.14 kcal/mol. The “selectivity towards matriptase over trypsin” value in data set [3] (pH 7.6) is given as 6 fold. Besides, the “Relative Activity” value in data set [3] (matriptase, pH 7.6 (Table 2)) was 0.009.
